These results are taken from patent publication US20250073180A1, “COMPOSITIONS COMPRISING NON-RACEMIC MIXTURES OF R- AND S-1,3-BUTANEDIOL AND USES THEREOF” (priority 2022, published 2025).

Series [1] concerns human subjects. Description: Modified Beverage Tolerability Questionnaire (m-BTQ), acute pilot consumer study. It is filed as in vivo. The procedure:
(§1) Two scales were utilized: subjective effects with Biphasic Alcohol Effects Scale (BAES), a validated tool to measure the effects of drinking alcohol (Martin, C. S., et al. 1993. Alcoholism, Clinical and Experimental Research 17 (1): 140-46), and GI Tolerance with a Modified Beverage Tolerability Questionnaire (m-BTQ; Chen., 0. T., et al. 2021. Nutrients 13 (6): 2066). Participants were asked to fast for at least 2 hours before consuming the product, and complete the m-BTQ and BAES at 60 minutes following the consumption of the product.
(§2) The study population was 6 individuals between 25-40 years old. Questionnaires for the m-BTQ and BAES are provided below in Tables 1 and 2.
(§3) The six participants were between 25-40 years old, were 100% Caucasian and all (100%) identified as male.

The subject of series [2] is human subjects. Description: Biphasic Alcohol Effects Scale (BAES) questionnaire, acute pilot consumer study. To be noted: 60 minutes following consumption of 20 g in a beverage; n=3 per group. It is filed as in vivo. The procedure:
as §1, §2, §3

The test system of a further series is rats. The following applies: dietary levels of 1.0, 3.0 and 10% for two years; cited from earlier work.
The test system of the next series is dogs. To be noted: dietary levels of 0.5, 1.0 and 3.0% for two years; cited from earlier work.
For series [3] the following is noted: ECHA registration dossiers; cited from earlier work.
The next series deals with human volunteers. To be noted: bolus doses of 0.5 g/kg bw or 0.7 g/kg bw; cited from earlier work.
For series [4] the following is noted: 25 g/day for 28 consecutive days; cited from earlier work.

Turning to `C[C@@H](O)CCO` [R-1,3-butanediol], the “Mean Composite Tolerability Score (m-BTQ)” value in the series on human subjects [1] (60 minutes following consumption of 20 g in a beverage, fasted at least 2 hours, n=3 per group) is 8. Also, in the series on human subjects [1] (acute use, 20 g beverage, all participants), the “Tolerability (in words)” value was “well tolerated by all participants”. In addition, in the series on human subjects [2], the “Mean BAES-SED Composite Score” value is 22.3 and the “Mean BAES-STIM Composite Score” value is 41.7.

`CC(O)CCO` (stereo not drawn) [1,3-butanediol]: the “Adverse effects attributable to ingestion” value in the series with rats and in the series on dogs was “no adverse effects attributable to the ingestion” in each case. For the same compound, in series [3], the “Acute oral, inhalation and dermal toxicity” value is listed as “low”. Further, the “Side effects of bolus doses” value in the series on human volunteers is “nausea, euphoria and dizziness”.

Take `CCCCCC(=O)OCC[C@@H](C)OC(=O)CCCCC` [BH-BD, bis-hexanoyl (R)-1,3-butanediol]: in series [4], the “Side effects and adverse events” value is “only mild side effects and no adverse events”.
